Holding throughout (type): cell-based
One experiment deals with C. Albicans. Kind of experiment: Broth dilution MIC against C. Albicans. As to conditions: Candida albicans, Monotherapy, overnight incubation. The procedure:
Broth dilution method was used to measure quantitatively the in vitro activity of an antimicrobial agent against a given bacterial isolate. First, a series of tubes/wells were prepared with a broth medium to which various concentrations of the antimicrobial agents were added. The tubes/wells were then inoculated with standardized suspension of the test organism. After overnight incubation at 35±2° C., the tests were examined and the minimum inhibitory concentration (MIC) was determined. The procedures were performed under aseptic conditions. Stock culture: Stock cultures were maintained in Mueller Hinton Broth containing 15% Glycerol and stored at −80° C. Stock cultures were sub-cultured on to Mueller Hinton Agar (MHA), and incubated overnight at 37° C. […] Washing of cells: the cells were washed with PBS (pH 7.1) by centrifuging at 3000 rpm for 10 minutes. A cell suspension in Mueller Hinton broth (MHB) having a turbidity equivalent to a 0.5 McFarland turbidity standard was prepared using a Beckman Coulter DU 800 Spectrophotometer measuring at 600 nm wavelength. This is a suspension containing approximately […] of microbe. The suspension was diluted in MH broth so that, after dilution, the tube contained approximately 5×10^6 CFU/mL, and after inoculation, each well contains approximately 5×10^5 CFU/mL. Broth dilution procedure: small volumes of MH broth dispensed in sterile, polystyrene, non-pyrogenic tissue culture plates, 96 well, flat bottoms with low evaporation lid were prepared (each well contained 0.1 mL of MH broth) followed by the final two fold dilutions of antimicrobial agent dispensed volumetrically into the broth. […] Inoculation: each well of a microdilution plate was inoculated. The purity of the inoculum suspension was checked by sub-culturing an aliquot on to MH agar plate. Colony counts on inoculum suspensions were performed periodically, to ensure that the final inoculum concentration was approximately 5×10^6 CFU/mL. […] The in plate dilution method the endpoint is detected by the unaided eye.

The next experiment relates to S. Aureus. Kind of experiment: microbe, parasite or virus in culture. How it is done:
(§1) Broth dilution method was used to measure quantitatively the in vitro activity of an antimicrobial agent against a given bacterial isolate. First, a series of tubes/wells were prepared with a broth medium to which various concentrations of the antimicrobial agents were added. The tubes/wells were then inoculated with standardized suspension of the test organism. After overnight incubation at 35±2° C., the tests were examined and the minimum inhibitory concentration (MIC) was determined. The procedures were performed under aseptic conditions. Stock culture: Stock cultures were maintained in Mueller Hinton Broth containing 15% Glycerol and stored at −80° C. Stock cultures were sub-cultured on to Mueller Hinton Agar (MHA), and incubated overnight at 37° C. […] Washing of cells: the cells were washed with PBS (pH 7.1) by centrifuging at 3000 rpm for 10 minutes. A cell suspension in Mueller Hinton broth (MHB) having a turbidity equivalent to a 0.5 McFarland turbidity standard was prepared using a Beckman Coulter DU 800 Spectrophotometer measuring at 600 nm wavelength. This is a suspension containing approximately […] of microbe. The suspension was diluted in MH broth so that, after dilution, the tube contained approximately 5×10^6 CFU/mL, and after inoculation, each well contains approximately 5×10^5 CFU/mL. Broth dilution procedure: small volumes of MH broth dispensed in sterile, polystyrene, non-pyrogenic tissue culture plates, 96 well, flat bottoms with low evaporation lid were prepared (each well contained 0.1 mL of MH broth) followed by the final two fold dilutions of antimicrobial agent dispensed volumetrically into the broth. […] Inoculation: each well of a microdilution plate was inoculated. The purity of the inoculum suspension was checked by sub-culturing an aliquot on to MH agar plate. Colony counts on inoculum suspensions were performed periodically, to ensure that the final inoculum concentration was approximately […]. […] To prevent drying, each plate was sealed with parafilm and the plates were kept in a moist chamber while incubating at 37° C. overnight, in a shaking incubator. Determining MIC endpoints: The MIC is defined as the lowest concentration of an antimicrobial that will inhibit growth of a microorganism. The in plate dilution method the endpoint is detected by the unaided eye.

The next experiment relates to E. coli. Kind of experiment: microbe, parasite or virus in culture. The procedure: as §1
The next experiment deals with P. Auregenosa. Put plainly: organism not typed. The procedure:
as §1

Setting [1] is: Staphylococcus aureus, Monotherapy, S. Aureus, broth dilution, overnight incubation, read-out: MIC.
Where [2] appears, read: Escherichia coli, Monotherapy, E. coli, broth dilution, overnight incubation, read-out: MIC.
The mark [3] stands for this setting: Monotherapy, P. Auregenosa, broth dilution, overnight incubation, read-out: MIC.
The mark [4] stands for this setting: Monotherapy, E. coli, broth dilution, overnight incubation.
Setting [5] is: Monotherapy, P. Auregenosa, broth dilution, overnight incubation.

Here are results for nine compounds from patent US8357385B2, “Combination therapy for the treatment of bacterial infections” (Interface Biologics Inc., priority 2008, dated 2013).

≈ marks a conversion by molar mass, not a printed value. Read-outs that look alike come from different tables or passages of the source. Peptide text beside a SMILES is read from it.

`[H]/N=C(\N/C(=N/[H])NCCCCCCNC(=N)NC(=N)Nc1ccc(Cl)cc1)Nc1ccc(Cl)cc1` [Chlorhexidine]: the MIC in the experiment on C. Albicans is 3.12 to 4 µg/mL (≈ 6.18 to 7.91 µM); in the experiment with S. Aureus (setting [1]), 3.12 to 4 µg/mL (≈ 6.18 to 7.91 µM); in the experiment on E. coli (setting [2]), 3.13 to 4 µg/mL (≈ 6.19 to 7.91 µM); in the experiment with P. Auregenosa (setting [3]) it was 4 to 5 µg/mL (≈ 7.91 to 9.89 µM).
As for `O=C(O)c1cn(C2CC2)c2cc(N3CCNCC3)c(F)cc2c1=O` [Ciprofloxacin], the MIC with C. Albicans was more than 2.5 µg/mL; in the experiment with S. Aureus (setting [1]) it was 0.156 to 0.2 µg/mL (≈ 0.471 to 0.604 µM); with E. coli (setting [2]), 0.005 to 0.0078 µg/mL (≈ 0.0151 to 0.0235 µM); in the experiment with P. Auregenosa (setting [3]) it was 0.156 to 0.25 µg/mL (≈ 0.471 to 0.754 µM).
As for Gentamicin, the MIC against E. coli (setting [4]) lay in the range of 1.25 to 2.5 µg/mL; against P. Auregenosa (setting [5]) it was 0.625 to 1.25 µg/mL.
Turning to `CC1(C)S[C@@H]2[C@H](NC(=O)[C@H](N)c3ccc(O)cc3)C(=O)N2[C@H]1C(=O)O` [Amoxicillin], the MIC is 31.2 to 62.5 µg/mL (≈ 85.5 to 171 µM) in the experiment on S. Aureus (setting [1]) and 250 to 500 µg/mL (≈ 684 to 1370 µM) with P. Auregenosa (setting [3]).
On to `Clc1ccc(COC(Cn2ccnc2)c2ccc(Cl)cc2Cl)c(Cl)c1` (stereo not drawn) [Miconazole], for which the figures for the MIC against C. Albicans and in the experiment with S. Aureus (setting [1]) were 1.4 to 2.8 µg/mL (≈ 3.36 to 6.73 µM) and 45 to 90 µg/mL (≈ 108 to 216 µM), respectively.
With Polymixin B, the MIC against S. Aureus (Monotherapy, S. Aureus, broth dilution, overnight incubation) was in the range of 62.5 to 100.0 µg/mL; against E. coli (setting [4]) it was 7.8 to 10 µg/mL; in the experiment with P. Auregenosa (setting [5]), 3.125 to 5.0 µg/mL.
With `CN[C@H](CC(C)C)C(=O)N[C@H]1C(=O)N[C@@H](CC(N)=O)C(=O)N[C@H]2C(=O)N[C@H]3C(=O)N[C@H](C(=O)N[C@H](C(=O)O)c4cc(O)cc(O)c4-c4cc3ccc4O)[C@H](O)c3ccc(c(Cl)c3)Oc3cc2cc(c3O[C@@H]2O[C@H](CO)[C@@H](O)[C@H](O)[C@H]2O[C@H]2C[C@](C)(N)[C@H](O)[C@H](C)O2)Oc2ccc(cc2Cl)[C@H]1O` [Vancomycin], in the experiment with E. coli (Escherichia coli), the MIC lay within 190 to 380 µg/mL (≈ 131 to 262 µM).
`C[C@H]1[C@H](NC(=O)/C(=N\OC(C)(C)C(=O)O)c2csc(N)n2)C(=O)N1S(=O)(=O)O` [Aztreonam]: the MIC in the experiment on S. Aureus (setting [1]) was 625 to 1250 µg/mL (≈ 1440 to 2870 µM); with E. coli (setting [2]) it was 0.078 to 0.097 µg/mL (≈ 0.179 to 0.223 µM); in the experiment with P. Auregenosa (setting [3]), 15.6 to 19 µg/mL (≈ 35.9 to 43.6 µM).
Turning to `CC[C@H](C)[C@H](N)C1=N[C@H](C(=O)N[C@@H](CC(C)C)C(=O)N[C@H](CCC(=O)O)C(=O)N[C@H](C(=O)N[C@H]2CCCCNC(=O)[C@H](CC(N)=O)NC(=O)[C@@H](CC(=O)O)NC(=O)[C@H](Cc3cnc[nH]3)NC(=O)[C@@H](Cc3ccccc3)NC(=O)[C@H]([C@@H](C)CC)NC(=O)[C@@H](CCCN)NC2=O)[C@@H](C)CC)CS1` [Bacitracin] (HELM PEPTIDE1{[CC[C@H](C)[C@H](N)C1=N[C@H](C(=O)[*:2])CS1].L.[dE].I.K.[NCCC[C@@H](N[*:1])C(=O)[*:2]].I.[dF].H.[dD].N}$PEPTIDE1,PEPTIDE1,5:R3-11:R2$$$V2.0), the MIC in the experiment on S. Aureus is 35 to 40 µg/mL; with E. coli, 1000 to 1250 µg/mL; with P. Auregenosa it was 4000 to 5000 µg/mL.
